The numbers were not newly measured in patent US20130266557A1, “METHODS FOR TREATMENT OF A SARCOMA USING AN EPIMETABOLIC SHIFTER (COENZYME Q10)” (priority 2009, published 2013), which cites them from elsewhere.

The structures appear in SMILES notation. Some results are limits rather than exact numbers.

The test system of the series is cancer. As to conditions: Mazzio 2006; cited from earlier work.

For the compound `COC1=C(OC)C(=O)C(C)=CC1=O` [DMBQ, 2,3-dimethoxy-5-methyl-1,4-benzoquinone, reference compound], the “Potency as an anti-cancer agent relative to CoQ10” value is reported as above 1000 times.
